Measurements from patent US20240059727A1, “METHOD OF MAKING NICOTINAMIDE RIBOFURANOSIDE SALTS BY SALT METATHESIS, THE CRYSTALLINE FORM OF ITS TOSYLATE SALT AND THE CO-CRYSTALLIZED FORM OF ITS CHLORIDE:IODIDE SALT” (BIOSYNTH AG, priority 2021, published 2024).

assay: Solubility in methanol; conditions: volume of methanol per 1 g salt; lower volume = better solubility

Row | Compound | methanol needed for dissolving 1 g of the salt [mL]
1 | NC(=O)c1ccc[n+](C2OC(CO)C(O)C2O)c1.[Br-] [NR·Br, nicotinamide-β-D-ribofuranoside bromide] | 50
2 | NC(=O)c1ccc[n+]([C@@H]2O[C@H](CO)[C@@H](O)[C@H]2O)c1.[Cl-] [NR·Cl, nicotinamide-β-D-ribofuranoside chloride] | 40
3 | nicotinamide-β-D-ribofuranoside tosylate [NR·p-tosylate] | 15
